# Reference: ChEMBL document CHEMBL3988442, “University of Dundee, Small-Polar-MMV Screening Library” (2021)
# Several values for one entry are separate records, joined by “and”; a condition that tells them apart may be missing. Equal entries are not always repeated.
# Tests used:
# [1] = biological target: Sialic acid-binding Ig-like lectin 9 (Homo sapiens, UniProt Q9Y336); experiment: Hs-Siglec9 ALPHAscreen SOP 20170721
# Leishmania donovani = experiment: Leishmania intramacrophage assay; assay type: functional, organism-based; conditions: for IC50: Leishmania donovani
# [2] = system: Mycobacterium tuberculosis; experiment: Cornell M. t heat shock assay; assay type: functional, organism-based; conditions: for IC50: Mycobacterium tuberculosis
# [3] = microbe, parasite or virus in culture; conditions: Mycobacterium tuberculosis, 96 h, read-out: pIC50 (converted)
# [4] = microbe, parasite or virus in culture; conditions: Mycobacterium tuberculosis, 72 h, read-out: pIC50 (converted)
# [5] = In vitro enzyme assay to detect hydrolysis of chlorophenol red-beta-D-[…] directly proportional to the number of Toxoplasma stably expressing beta-galactosidase; assay type: functional, organism-based, Toxoplasma gondii; conditions: for IC50: Toxoplasma gondii
# Plasmodium falciparum = experiment: Calibr Malaria Delayed Death Assay SOP; assay type: functional, organism-based; conditions: for IC50: Plasmodium falciparum
# ClpP1P2 = ClpP1P2 (Mycobacterium tuberculosis (strain ATCC 25618 / H37Rv), UniProt P9WPC3+P9WPC5); experiment: in vitro assay to detect presence of AMC directly proportional to the activity of ClpP1P2. GHDDI collaboration.; assay type: functional
# [6] = biological target: T1, Coenzyme A biosynthesis bifunctional protein CoaBC (Mycobacterium tuberculosis (strain ATCC 25618 / H37Rv), UniProt P9WNZ1); experiment: Biomol Green assay for MtCoaBC inhibitor, OD650 read; assay type: functional
# T1 sequence (P9WNZ1 whole entry): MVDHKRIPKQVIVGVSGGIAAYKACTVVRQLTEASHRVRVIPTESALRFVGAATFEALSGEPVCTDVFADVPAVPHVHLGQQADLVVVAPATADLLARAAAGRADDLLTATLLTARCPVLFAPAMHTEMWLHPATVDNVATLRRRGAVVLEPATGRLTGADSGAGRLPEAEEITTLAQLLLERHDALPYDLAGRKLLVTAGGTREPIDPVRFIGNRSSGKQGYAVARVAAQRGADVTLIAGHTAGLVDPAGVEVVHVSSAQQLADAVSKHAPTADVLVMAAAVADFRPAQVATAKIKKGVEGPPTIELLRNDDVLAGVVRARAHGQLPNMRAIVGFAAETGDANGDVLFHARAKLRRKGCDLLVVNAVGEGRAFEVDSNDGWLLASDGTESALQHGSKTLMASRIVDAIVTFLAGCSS
# [7] = biological target: Polyketide synthase Pks13 (Mycobacterium tuberculosis (strain ATCC 25618 / H37Rv), UniProt I6X8D2); experiment: Mycobacterium tuberculosis Polyketide synthase 13 Thioesterase (PKS13); assay type: functional
# Tryptophan--tRNA ligase = Tryptophan--tRNA ligase (Mycobacterium tuberculosis (strain ATCC 25618 / H37Rv), UniProt P9WFT3); experiment: Biochemical assay for Mt-TrpRS; assay type: functional
# Wolbachia pipientis = experiment: Anti-Wolbachia Cell-Based Screen; assay type: functional; conditions: for IC50: Wolbachia pipientis
# Histidine--tRNA ligase = biological target: T2, Histidine--tRNA ligase (Leishmania infantum, UniProt A4I591); experiment: Leishmania infantum Histidine tRNA synthetase (LdHisRS); assay type: functional
# T2 sequence (A4I591 whole entry): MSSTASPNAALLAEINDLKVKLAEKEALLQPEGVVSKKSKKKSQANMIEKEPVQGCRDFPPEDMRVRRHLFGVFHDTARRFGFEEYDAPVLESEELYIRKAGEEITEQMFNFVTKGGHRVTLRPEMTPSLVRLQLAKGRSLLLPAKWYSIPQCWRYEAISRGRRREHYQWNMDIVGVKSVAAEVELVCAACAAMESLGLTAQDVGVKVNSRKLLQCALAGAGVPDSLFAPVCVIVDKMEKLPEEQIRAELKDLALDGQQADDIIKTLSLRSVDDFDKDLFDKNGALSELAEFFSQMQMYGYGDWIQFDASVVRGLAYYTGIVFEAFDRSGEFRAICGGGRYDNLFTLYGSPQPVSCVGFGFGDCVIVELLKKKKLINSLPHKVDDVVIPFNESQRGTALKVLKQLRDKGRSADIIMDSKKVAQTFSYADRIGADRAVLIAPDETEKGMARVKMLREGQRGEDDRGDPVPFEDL
# Lysine--tRNA ligase = Lysine--tRNA ligase (Plasmodium falciparum (isolate 3D7), UniProt Q8IDJ8); experiment: Pf-KRS-1 (Lysyl-RNA Synthetase-1, KRS-1, cytosolic KRS) from Plasmodium falciparum. Inhibitor assay, 384 well plate, luminescence read.; assay type: functional
smiles,measurement,setting,value
CCOC(=O)CNC(=O)c1cc2n(n1)CCCO2,IC50,[1],> 30.2 µM
Cc1cnn(CC2CCCN2C(=O)c2cccc(-n3ccc(C)n3)c2)c1 (configuration not stated),IC50,[1],> 30.2 µM
N#Cc1ccc2c(c1)CN(C(=O)c1nc[nH]n1)C2c1cnco1 (configuration not stated),IC50,[1],> 30.2 µM
O=C1Nc2ccccc2CN(CC2CC2)C12CCNC2 (configuration not stated),IC50,[1],> 30.2 µM
COc1ccc(C(C)NCc2scnc2C)cc1Cn1cccn1 (configuration not stated),IC50,[1],> 30.2 µM
Fc1cccc(Nc2nc(N3CCCC3)nc3c2CNCC3)c1,pIC50,Leishmania donovani,5.271
same,IC50,Leishmania donovani,3.49 µM
same,IC50,[2],25.8 µM
same,IC50,[3],18.8 µM
same,IC50,[4],23.6 µM
Cc1ccc(Oc2cc(F)ccc2O[C@@H]2CCC[C@@H](N)[C@H]2O)cc1,pIC50,Leishmania donovani,4.961
same,IC50,Leishmania donovani,6.4 µM
same,IC50,[5],8.59 µM
same,pIC50,Plasmodium falciparum,6.291
same,IC50,Plasmodium falciparum,0.584 µM
same,pIC50,[2],4.493
same,IC50,[2],33.6 µM
same,IC50,[3],47.8 µM
same,IC50,[4],39.4 µM
CN[C@@H]1CCC[C@@H](Oc2ccccc2Oc2ccc(C)cc2)[C@@H]1O,pIC50,Leishmania donovani,5.128
same,IC50,Leishmania donovani,5.46 µM
same,pIC50,Plasmodium falciparum,6.476
same,IC50,Plasmodium falciparum,0.349 µM
same,pIC50,[2],4.304
same,IC50,[2],89.2 µM
same,IC50,[3],> 50.1 µM
same,IC50,[4],35.8 µM
CCN(CC)c1nc(Nc2cccc(C(C)O)c2)nc2ccccc12 (configuration not stated),pIC50,[5],5.586
same,IC50,[5],2.08 µM
same,IC50,[2],12.2 µM
same,IC50,ClpP1P2,> 100 µM
same,IC50,[3],22.9 µM
same,IC50,[4],25.7 µM
CC(Cn1cccn1)NCc1csc(Cc2ccccc2)n1 (configuration not stated),IC50,[6],> 30.2 µM
same,IC50,[2],12.7 µM
CC(C)C(NC(=O)c1cnc(N2CCOCC2)nc1)c1cccs1 (configuration not stated),IC50,[6],> 30.2 µM
same,IC50,[2],48.2 µM
same,IC50,[3],48.9 µM
same,IC50,[4],44.9 µM
c1ccc2oc(CCCN3CCCCC3Cn3cncn3)nc2c1 (configuration not stated),IC50,[7],> 100 µM
same,IC50,[2],> 100 µM
CS(=O)(=O)N[C@@H]1CN(C(=O)c2cc3ccccc3s2)C[C@H]1O,IC50,Tryptophan--tRNA ligase,> 195 µM
same,pIC50,[2],4.54
same,IC50,[2],24.6 µM
same,IC50,[3],> 50.1 µM
same,IC50,[4],25.4 µM
O=C(CN1CCOC(CNc2cccnn2)C1)NCc1cccs1 (configuration not stated),IC50,[2],> 100 µM
same,IC50,Wolbachia pipientis,> 10 µM
CC1(c2ccccc2)CCCN(Cc2cncn2C2CCCC2)C1 (configuration not stated),IC50,[5],4.15 µM
same,IC50,[2],14.4 µM
same,IC50,[3],18.5 µM
same,IC50,[4],20.4 µM
Cc1cc(=O)[nH]c(-n2nc(C3CC3)cc2N)n1,pIC50,Leishmania donovani,< 4.3 and 4.677
same,IC50,[2],27.5 µM
same,IC50,[3],41.2 µM
same,IC50,[4],30.1 µM
Cc1nc(C2CCNCC2)cc(N(C)Cc2cc3cc(F)ccc3[nH]2)n1,pIC50,Leishmania donovani,4.976
same,IC50,Leishmania donovani,11.9 µM
same,pIC50,[5],5.24 and 4.835
same,pIC50,Plasmodium falciparum,6.017
same,IC50,Plasmodium falciparum,0.803 µM
same,IC50,[2],72.3 µM
Cc1nn(C)c(C)c1CCn1cncc1-c1ccc2c(c1)CC(C)N2C.Cl (configuration not stated),IC50,Leishmania donovani,> 50.1 µM
same,IC50,Histidine--tRNA ligase,43.1 µM and 43 µM
same,pIC50,Plasmodium falciparum,5.741
same,IC50,Plasmodium falciparum,1.72 µM
same,IC50,[2],> 100 µM
Cc1cccc(CN2CCCC2c2cccc(Nc3nccs3)n2)c1 (configuration not stated),pIC50,Plasmodium falciparum,5.988
same,IC50,Plasmodium falciparum,1.01 µM
same,pIC50,[2],5.755
same,IC50,[2],2.41 µM
same,pIC50,Wolbachia pipientis,5.856
same,IC50,Wolbachia pipientis,1.87 µM
COc1ccc(F)c(CN(CCCn2ccnc2)Cc2ccc(C)s2)c1.O=C(O)CC(O)(CC(=O)O)C(=O)O,IC50,[5],7.3 µM
same,pIC50,[2],4.599
same,IC50,[2],27.4 µM
CN(C)CCN(C)C(=O)Cn1cccc2cc(-c3ccc(F)cc3)nc1-2,pIC50,Leishmania donovani,4.872
same,IC50,Leishmania donovani,9.3 µM
same,pIC50,Plasmodium falciparum,6.323
same,IC50,Plasmodium falciparum,0.489 µM
same,pIC50,[2],4.438
same,IC50,[2],42.9 µM
same,IC50,ClpP1P2,> 100 µM
Cc1ccc(CN(CCCn2ccnc2)Cc2cccs2)s1,IC50,Tryptophan--tRNA ligase,> 195 µM
same,IC50,[2],19.9 µM
same,IC50,[3],25.9 µM
same,IC50,[4],42 µM
COc1ccc(-n2cc(CCO)cn2)cc1C,IC50,[6],> 30.2 µM
same,IC50,Lysine--tRNA ligase,> 50.1 µM
same,IC50,Histidine--tRNA ligase,17.7 µM and 11.1 µM
same,IC50,[2],41.4 µM
Cc1ncc(CNCCO)c2cc(C(=O)c3ccc(Br)cc3)oc12.Cl,IC50,[5],9.37 µM
same,pIC50,Plasmodium falciparum,6.356
same,IC50,Plasmodium falciparum,0.541 µM
same,IC50,[2],> 49 µM
Cc1nnc(NCc2ccccc2F)c(C#N)c1C,IC50,Histidine--tRNA ligase,16.9 µM and 23.1 µM
same,IC50,[2],78.6 µM
CCc1cc(=O)[nH]c(NC2CCN(S(=O)(=O)c3ccccc3)CC2)n1,IC50,[6],> 30.2 µM
same,IC50,[2],> 100 µM
CS(=O)(=O)N1CCCC1c1cccc(Nc2nccs2)n1 (configuration not stated),IC50,[2],> 100 µM
same,pIC50,Wolbachia pipientis,5.083
same,IC50,Wolbachia pipientis,9.08 µM
Cc1nc(-n2nc(C3CC3)cc2NC(=O)C(C)C)[nH]c(=O)c1C,pIC50,[5],5.686
same,IC50,[5],3.09 µM
same,IC50,[2],7.58 µM
same,IC50,[3],14.2 µM
same,IC50,[4],10.2 µM
Cc1ccc(Oc2c(F)cccc2OC[C@@H](N)CC(C)C)cc1,pIC50,Leishmania donovani,5.171
same,IC50,Leishmania donovani,12.4 µM
same,IC50,[2],25.1 µM
same,IC50,[3],25.5 µM
same,IC50,[4],23.4 µM
c1ccc(CCN2CCCC2c2cccc(Nc3nccs3)n2)cc1 (configuration not stated),IC50,[6],> 30.2 µM
same,pIC50,[2],4.565
same,IC50,[2],38.9 µM
same,pIC50,Wolbachia pipientis,5.678
same,IC50,Wolbachia pipientis,1.09 µM
CCN(CC)S(=O)(=O)N1CCCC1c1cccc(Nc2ncc(C)s2)n1 (configuration not stated),IC50,[2],> 100 µM
same,pIC50,Wolbachia pipientis,5.165
same,IC50,Wolbachia pipientis,8.99 µM
COc1cccc(CNCc2nc3ccccc3c(=O)[nH]2)c1,IC50,Tryptophan--tRNA ligase,> 195 µM
same,IC50,[2],67.4 µM
